# Test results from patent US11517617B2, “Methods and compositions for preventing influenza infection” (THE UNIVERSITY OF MELBOURNE, priority 2017, dated 2022).
# Several values for one entry are separate records, joined by “and”; a condition that tells them apart may be missing. Equal entries are not always repeated. Where two headings read alike, the source gives them in different places. No end group written: not given here.
# Assays:
# tetramer^+ CD8^+ T cells [1] = experiment: Tetramer staining of IAV- or IBV-specific CD8^+ T cell lines established in vitro from healthy adult PBMC; assay type: cell-based, human; settings: for tetramer^+ of CD8^+ T cells, median: n=11
# Source text: Conversely, the universal A2/PB1413 epitope within the IBV-specific T cell lines was immunodominant (0.3%; detected in 8/11 donors) over the IBV-specific A2/BHA543 (0.11%; detected in 10/11 donors) and A2/BNS1266 epitopes (0.01%) (FIG. 4c).
# CD8^+ T cells [2] = experiment: In vitro screening and validation in HLA-A*02:01-expressing human PBMCs, CD8^+ T cell lines, IFNγ/TNF ICS; assay type: cell-based; settings: for CD8^+ T cell response hierarchy of individual peptides: HLA-A*0201^+ donors, dissection of pools into individual peptides; for CD8^+ T cell response, median / donors with response: T cell lines towards individual peptides, n=6
# Source text: As a next step, the IBV-specific CD8^+ T cell responses towards the 67 LC/MS-identified IBV-peptides in HLA-A*02:01-expressing individuals were dissected. CD8^+ T cell lines specific for each of the 6 peptide pools were established, and then re-stimulated cells with the cognate pool in an IFNγ/TNF ICS assay (FIG. 2f).
# To validate these responses independently of the peptide pools, CD8^+ T cell lines were established towards individual immunogenic peptides (FIG. 2i). […] Thus, these thorough in vivo and in vitro analyses identified 5 novel peptides recognized by CD8^+ T cells in complex with the HLA-A*02:01 molecule, with BHA543-551 being immunodominant amongst the peptides tested, in both mice and humans.
# Peripheral blood mononuclear cells (PBMC) from healthy A2:01+ donors were cultured in the presence of antigens (10 μM peptide) for 10 days in the presence of IL-2 (10 U/ml). On day 10 PBMCs were stimulated with peptides (1 μM) for 5 hours in the presence of BFA. Cells were surface stained for CD3 and CD8 and intracellularly stained for IFNγ and TNF using the BD cytofix/cytoperm kit according to the manufacturer's instructions (BD Biosciences).
# Any pools with positive ICS responses were then dissected to their individual peptides.
# CD8^+ T cells [3] = tested on: CD8^+ T cells; design: species or system HHD-A2 mice; settings: mouse, in vivo
# CD8^+ T cells [4] = experiment: Recall responses in HHD-A2 mice primed with B/Malaysia and challenged with B/Phuket; assay type: in vivo; settings: spleen d8 after B/Phuket challenge; not statistically significant
# Source text: To further verify the immunogenicity of these epitopes in recall responses, HHD-A2 mice were primed i.n. with B/Malaysia, infected with the heterologous strain B/Phuket 6 weeks later and then assessed CD8^+ T cells against the main epitopes A2/BHA543-551 and A2/BNS1266-274 in the spleen on d8 after challenge.
# HLA-A*02:01 [5] = molecular target: T1, HLA-A*02:01 (Homo sapiens, UniProt P04439, D140Y/D185E/D98H/E176V/E277Q/G131W/G231S/I119V/I121R/I166T/I218V/L300P/L318F/N151K/N90K/P208A/P217A/Q86G/Q94H/R138H/R169H/T345S); settings: reference 34; cited from earlier work
# human lung CD8^+ T cells = experiment: Ex vivo tetramer detection in human lung samples from deceased organ donors; assay type: cell-based; settings: for epitope-specific CD8^+ T cells detected within human lung CD8^+ T cells: n=3 lung donors
# Source text: As human memory CD8^+ T cells also reside outside the circulation, a rare set of human lung samples from deceased organ donors (n=3) were used to assess the presence of universal A2/PB1413^+CD8^+ T cells at the site of infection. CD8^+ T cells specific for A2/M158 and A2/PB1413, but not A2/BHA543 were detected within human lung CD8^+ T cells (2/3 donors for either specificity, FIG. 3f). […] Although based on a limited number of donors, this analysis indicates the presence of universal A2/PB1413^+ tissue-resident memory CD8^+ T cell pools in the human lung.
# CD8^+ T cells [6] = tested on: CD8^+ T cells
# tetramer^+ CD8^+ T cells [7] = assay type: cell-based, human
# CD8+ T Lymphocytes = assay type: cell-based, human
# CD8^+ T cells [8] = tested on: CD8^+ T cells; design: species or system A24 mice; settings: mouse
# [9] = tested on: memory CD8^+ T cells within PBMCs; assay type: cell-based, human
# A2/PB1413^+CD8^+ T cells = assay type: cell-based, human
# IBV = tested on: IBV; design: species or system HHD-A2 mice; settings: mouse, in vivo
# HLA-A*02:01 [10] = molecular target: T1, HLA-A*02:01; experiment: Thermal stability of pHLA-A*02:01 complex (Tm); assay type: binding
# CD8^+ T cells [11] = assay type: cell-based, human
# tetramer^+CD8^+ T cells = assay type: cell-based, human
# [12] = tested on: A2/PB1413-specific CD8^+ T cells; assay type: cell-based, human; settings: n=24
# CD8+ T cells = tested on: CD8+ T cells; design: species or system transgenic HLA-A24 mice; settings: mouse, in vivo
# [13] = IAV-specific CD8^+ T cell lines
sequence,measurement,setting,value
SQFGQEHRL (Influenza B virus) [NS1266-274],"tetramer^+ of CD8^+ T cells, median",tetramer^+ CD8^+ T cells [1]; IBV-specific T cell lines,0.01%
same,ICS responses in healthy A2:01+ donors,"CD8^+ T cells [2]; 10 days culture with 10 μM peptide and IL-2, re-stimulation 1 μM",detected across multiple donors
same,CD8^+ T cell response hierarchy of individual peptides,CD8^+ T cells [2],Subdominant responses
same,"CD8^+ T cell response, median",CD8^+ T cells [2],0.035 % of CD8^+ T cells
same,donors with response,CD8^+ T cells [2],single donor
same,CD8+ T cell responses (IFNγ and TNF production),CD8^+ T cells [3],CD8+ T cell responses were targeted
same,"CD8^+ T cell response, mean",CD8^+ T cells [3],1.8 % of CD8^+ T cells
same,CD8^+ T cell responses at the site of infection,CD8^+ T cells [3],targeted
same,number of secondary IFNγ^+TNF^+ CD8^+ T cells in the spleen versus primary infection,CD8^+ T cells [4],~27 fold
"GILGFVFVL [M158-66, GILGFVFVL, reference compound]",donors with detected tetramer^+ cells,tetramer^+ CD8^+ T cells [1]; [13],11 donors
same,"tetramer^+ of CD8^+ T cells, median",tetramer^+ CD8^+ T cells [1]; [13],3.9%
same,Tm (temperature required to unfold 50% of the protein) of pHLA-A*02:01 complex,HLA-A*02:01 [5],65 °C
same,epitope-specific CD8^+ T cells detected within human lung CD8^+ T cells,human lung CD8^+ T cells,2/3
same,EC50,CD8^+ T cells [6],8.1 nM
same,CD38^+/Ki-67^+ expression of tetramer-positive CD8^+ T cells,tetramer^+ CD8^+ T cells [7],increase
same,increase in frequency of epitope-specific CD8^+ T cells in blood versus healthy donors,tetramer^+ CD8^+ T cells [7],4.3 fold
same,individuals with detected epitope-specific CD8^+ T cells,tetramer^+ CD8^+ T cells [7],100%
NFAMELPSF (Influenza B virus) [PB1503-511],CD8+ T cell responses (IFNγ) after single peptide re-stimulation,CD8+ T Lymphocytes,immunogenic response
RYGFVANF (Influenza A virus) [PB1498-505],in vivo CD8^+ T cell responses,CD8^+ T cells [8],targeted
YLNPGNYSM (Influenza B virus) [M1132-140],CD8^+ T cell response hierarchy of individual peptides,CD8^+ T cells [2],Subdominant responses
same,donors with response,CD8^+ T cells [2],single donor
SFSFGGFTF (Influenza A virus) [PB2322-330],in vivo CD8^+ T cell responses,CD8^+ T cells [8],targeted
SYINRTGTFEF (Influenza A virus) [PB1482-492],in vivo CD8^+ T cell responses,CD8^+ T cells [8],targeted
"NMLSTVLGV [PB1413-421, NMLSTVLGV]",donors with detected tetramer^+ cells,tetramer^+ CD8^+ T cells [1]; [13],10/11
same,"tetramer^+ of CD8^+ T cells, median",tetramer^+ CD8^+ T cells [1]; [13],0.12%
same,donors with detected tetramer^+ cells,tetramer^+ CD8^+ T cells [1]; IBV-specific T cell lines,8/11
same,"tetramer^+ of CD8^+ T cells, median",tetramer^+ CD8^+ T cells [1]; IBV-specific T cell lines,0.3%
same,memory CD8^+ T cell responses (IFN-γ production after peptide re-stimulation),[9],robust memory CD8^+ T cell responses
same,phenotype of the majority of lung tetramer^+ CD8^+ T cells,human lung CD8^+ T cells; human lung,tissue-resident memory CD69^+CD103^+CD45RO^+ phenotype
same,epitope-specific CD8^+ T cells detected within human lung CD8^+ T cells,human lung CD8^+ T cells,2/3
same,IFN-γ production towards peptide,A2/PB1413^+CD8^+ T cells,minimal
same,magnitude of A2/PB1413-specific CD8^+ T cells,A2/PB1413^+CD8^+ T cells,markedly increased
same,epitope-specific CD8^+ T cells after immunization,IBV,could not be detected
same,Tm (temperature required to unfold 50% of the protein) of pHLA-A*02:01 complex,HLA-A*02:01 [10],~72 °C
same,additional low avidity CD8^+ T cells detected by Q115E staining,CD8^+ T cells [11],no additional
same,EC50,CD8^+ T cells [6],0.89 nM
same,CD38^+/Ki-67^+ expression of tetramer-positive CD8^+ T cells,tetramer^+ CD8^+ T cells [7],increase
same,increase in frequency of epitope-specific CD8^+ T cells in blood versus healthy donors,tetramer^+ CD8^+ T cells [7],6 fold
same,increase in numbers of epitope-specific CD8^+ T cells versus healthy donors,tetramer^+ CD8^+ T cells [7],2.6 fold
same,individuals with detected epitope-specific CD8^+ T cells,tetramer^+ CD8^+ T cells [7],50% and 87.5%
same,increase from baseline to d14,tetramer^+CD8^+ T cells,19 fold
same,healthy donors with detectable levels of epitope-specific CD8^+ T cells,[12],80%
KYVLFHTSL (Influenza B virus) [PA457-465],CD8+ T cell responses (IFNγ) after single peptide re-stimulation,CD8+ T Lymphocytes,immunogenic response
VLSQFGQEHRL (Influenza B virus) [NS1264-274],CD8^+ T cell response hierarchy of individual peptides,CD8^+ T cells [2],Subdominant responses
same,"CD8^+ T cell response, median",CD8^+ T cells [2],0.025 % of CD8^+ T cells
same,donors with response,CD8^+ T cells [2],single donor
same,CD8+ T cell responses (IFNγ and TNF production),CD8^+ T cells [3],detected
same,CD8^+ T cell responses at the site of infection,CD8^+ T cells [3],targeted
YYSTAASSL (Influenza B virus) [HA552-560],CD8+ T cell responses (IFNγ) after single peptide re-stimulation,CD8+ T Lymphocytes,immunogenic response
TYQWVLKNL (Influenza B virus) [PB2550-558],immunogenicity (induction of IFNγ production in CD8+ T cells after peptide re-stimulation),CD8+ T cells,immunogenic
